Data from US20190257817A1, “METHODS AND SYSTEMS FOR SCREENING CANDIDATE COMPOUNDS FOR THEIR POTENTIAL TO CAUSE SYSTEMIC OR HEPATIC TOXICITY” (Qualyst Transporter Solutions, LLC, priority 2016, published 2019).
“Also recorded” adds a separate entry of the source. Like-named read-outs stand apart in the source and are kept apart here. Each block holds one molecule with its values, some of them ahead of it.

Experiments:
SCHH [1] = assay: Bile acids at increasing concentrations in SCHH over 24 hours (ATP, LDH); format: cell-based, human; settings: 24 hr exposure
Protocol: Bile acids GCA, GCDCA and GDCA were evaluated at increasing concentrations in SCHH over 24 hours. ATP (FIG. 9) and LDH (FIG. 10) content were measured.

FXR = target: T1, FXR (Homo sapiens, UniProt Q96RI1); assay: FXR antagonism: OSTβ mRNA induction in SCHH co-treated with CDCA and CsA; format: cell-based
T1 construct: endogenous in cells; host or cells: SCHH (sandwich-cultured hepatocytes from donors)
T1 sequence (Q96RI1 1-486): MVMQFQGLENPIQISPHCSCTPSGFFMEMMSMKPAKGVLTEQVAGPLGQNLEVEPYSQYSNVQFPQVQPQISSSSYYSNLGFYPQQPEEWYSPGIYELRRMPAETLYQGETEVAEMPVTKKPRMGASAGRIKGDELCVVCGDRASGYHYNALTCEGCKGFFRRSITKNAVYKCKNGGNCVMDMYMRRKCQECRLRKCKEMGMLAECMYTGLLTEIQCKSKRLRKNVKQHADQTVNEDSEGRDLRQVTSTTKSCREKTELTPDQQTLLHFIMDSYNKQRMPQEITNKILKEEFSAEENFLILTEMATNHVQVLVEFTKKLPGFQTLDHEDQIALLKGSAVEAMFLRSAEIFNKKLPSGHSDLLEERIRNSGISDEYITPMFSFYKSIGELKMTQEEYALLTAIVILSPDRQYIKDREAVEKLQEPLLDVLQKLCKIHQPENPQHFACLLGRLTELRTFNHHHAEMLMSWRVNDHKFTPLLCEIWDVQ
Text: Alternatively, the reduction of OSTβ mRNA content may be explained by cytotoxicity under the conditions evaluated.

[2] = cited from earlier work
[3] = cited from earlier work; for ALT elevations≥3× upper limit normal: large clinical trials; for clinical toxicity: clinic
SCHH [4] = assay: Cholestasis hepatotoxicity screening assay in SCHH (LDH leakage, ATP content), standard vs sensitization medium; format: cell-based; settings: human, 24 h, 100 μM
Text: As discussed above, hepatocytes become susceptible to bile acid toxicity (e.g. cholestatic hepatotoxicity) when drug exposure inhibits bile acid efflux routes (e.g. BSEP and/or MRP3/4) and 1) prevents (antagonize) FXR from sensing the rising intracellular concentrations of bile acids; or 2) inhibits bile acid efflux through OSTα/β; or 3) a combination of both. […] Briefly, hepatocytes were established in a sandwich-cultured configuration for four days. […] Drug exposures ranged from about 8× to about 16× Cmax to account for concentrating effect that can occur in the portal vein following oral administration of test compounds. Following 24 hours, LDH leakage and ATP content was evaluated utilizing commercially available assays.
The sensitization medium included free fatty acids and a physiological mixture of primary and secondary bile acids, described above (GCDCA, GCA, DCA, and GDCA) at an adequate concentration (250 μM) that minimized toxicity but challenged the hepatocytes bile acid homeostasis mechanism.

NTCP = target: T2, NTCP (Homo sapiens, UniProt Q14973); assay: In vitro assays of NTCP inhibition
T2 sequence (Q14973 1-349): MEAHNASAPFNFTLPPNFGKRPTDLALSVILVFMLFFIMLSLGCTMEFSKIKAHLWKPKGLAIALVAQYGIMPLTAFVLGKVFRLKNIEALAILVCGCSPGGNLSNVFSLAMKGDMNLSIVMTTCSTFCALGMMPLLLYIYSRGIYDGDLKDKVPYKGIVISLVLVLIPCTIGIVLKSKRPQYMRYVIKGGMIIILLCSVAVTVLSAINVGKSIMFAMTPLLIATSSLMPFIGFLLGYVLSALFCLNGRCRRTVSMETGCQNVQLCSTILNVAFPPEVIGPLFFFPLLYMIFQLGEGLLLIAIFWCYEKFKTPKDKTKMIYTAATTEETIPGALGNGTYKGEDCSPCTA

BSEP = BSEP (Homo sapiens, UniProt O95342); assay: In vitro assay of BSEP effect
BSEP, sequence (O95342 whole entry, species assumed): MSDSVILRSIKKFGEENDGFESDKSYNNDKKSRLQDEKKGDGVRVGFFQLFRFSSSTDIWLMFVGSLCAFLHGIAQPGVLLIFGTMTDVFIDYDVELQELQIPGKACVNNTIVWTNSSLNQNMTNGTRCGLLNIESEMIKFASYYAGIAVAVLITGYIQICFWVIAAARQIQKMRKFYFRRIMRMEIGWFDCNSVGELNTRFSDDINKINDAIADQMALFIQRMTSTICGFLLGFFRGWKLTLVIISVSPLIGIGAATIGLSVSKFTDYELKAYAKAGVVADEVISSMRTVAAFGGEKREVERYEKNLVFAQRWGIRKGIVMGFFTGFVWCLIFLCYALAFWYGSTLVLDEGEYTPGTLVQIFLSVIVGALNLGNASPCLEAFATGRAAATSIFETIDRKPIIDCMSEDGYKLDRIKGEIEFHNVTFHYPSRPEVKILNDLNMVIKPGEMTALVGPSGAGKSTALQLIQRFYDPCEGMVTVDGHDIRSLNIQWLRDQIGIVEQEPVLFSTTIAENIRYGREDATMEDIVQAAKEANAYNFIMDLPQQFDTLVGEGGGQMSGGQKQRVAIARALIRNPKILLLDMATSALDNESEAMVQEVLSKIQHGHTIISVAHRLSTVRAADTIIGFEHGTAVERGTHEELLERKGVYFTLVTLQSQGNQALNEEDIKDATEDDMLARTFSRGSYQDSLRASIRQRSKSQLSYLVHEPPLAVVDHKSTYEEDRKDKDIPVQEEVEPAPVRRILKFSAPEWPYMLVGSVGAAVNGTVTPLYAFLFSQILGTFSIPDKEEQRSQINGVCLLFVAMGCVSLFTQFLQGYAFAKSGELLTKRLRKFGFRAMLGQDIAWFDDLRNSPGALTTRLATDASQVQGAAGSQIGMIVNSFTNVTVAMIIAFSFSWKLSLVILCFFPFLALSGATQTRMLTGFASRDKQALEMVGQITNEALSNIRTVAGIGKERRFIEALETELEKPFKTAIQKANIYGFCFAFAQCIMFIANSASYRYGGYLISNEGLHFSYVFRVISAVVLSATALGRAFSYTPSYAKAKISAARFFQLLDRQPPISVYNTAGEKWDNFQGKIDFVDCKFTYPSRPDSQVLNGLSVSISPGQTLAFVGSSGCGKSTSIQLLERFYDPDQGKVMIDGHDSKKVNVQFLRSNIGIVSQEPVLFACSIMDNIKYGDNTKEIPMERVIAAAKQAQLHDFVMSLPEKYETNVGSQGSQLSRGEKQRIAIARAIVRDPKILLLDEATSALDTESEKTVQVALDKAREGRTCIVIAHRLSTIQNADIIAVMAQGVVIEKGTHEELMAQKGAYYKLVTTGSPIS

[5] = tested on: sandwich-cultured human hepatocytes; assay: Bile acid pool toxicity profile shift in SCHH, ApoTox-Glo Triplex Assay; format: cell-based; settings: 5 mM and 11 mM glucose
Protocol: Utilizing similar methodology from the previous sections, hepatotoxicity was evaluated with ApoTox-Glo™ Triplex Assay.
The effects of the test compounds were evaluated in the presence of the individual bile acids and in the presence of a bile acid pool. The effects were compared to bile acid treatment alone. DMSO treatment alone was used as a comparator for hepatotoxicity. Hepatotoxicity was evaluated with ApoTox-Glo™ Triplex Assay, which assesses viability, cytotoxicity and apoptosis.
A bile acid mixture was evaluated, and was composed of 4 different bile acids maintained at a physiological relevant ratio of each bile acid. […] Individual bile acids were dosed using the concentration they represent in the mixture.
A treatment group without free fatty acids was used as a control. Hepatotoxicity was evaluated with ApoTox-Glo™ Triplex Assay which assessed viability, cytotoxicity and apoptosis.

SCHH [6] = assay: Feasibility study: BA toxicity potency, Ambrisentan vs Sitaxsentan; format: cell-based, human; settings: 2-200 uM test compound
Text: Generally, the presently disclosed methods can in some embodiments comprise culturing SCHH with a concentration range of a bile acid (e.g. DCA), or bile acid pool to identify the toxicity profile of the bile acid (such as by measurement of ATP and/or LDH; dotted line in FIGS. 7 and 8). In a parallel study, SCHH can be exposed to a concentration range of DCA or combination of bile acids in the presence of a potential cholestatic hepatotoxicant.

[7] = conditions used to examine FXR antagonism

SMILES: C[C@H](CCC(=O)NCC(=O)O)[C@H]1CC[C@H]2[C@@H]3[C@H](O)C[C@@H]4C[C@H](O)CC[C@]4(C)[C@H]3C[C@H](O)[C@]12C [GCA]
cytotoxicity of bile acid (SCHH [1]; increasing concentrations, ATP and LDH): not cytotoxic

induction of OSTβ mRNA content (FXR; SCHH co-treated with CDCA and CsA, troglitazone 75-100 μM): A similar effect was observed
SMILES: COc1cccc(Cn2cc(C(=O)Nc3ccc(C)c(S(=O)(=O)N4CCOCC4)c3)c(-c3ccc(C)cc3)n2)c1 [DY268]

SMILES: C[C@H](CCC(=O)NCC(=O)O)[C@H]1CC[C@H]2[C@@H]3CC[C@@H]4C[C@H](O)CC[C@]4(C)[C@H]3C[C@H](O)[C@]12C [GDCA]
relative toxicity in the ATP assay (SCHH [1]): GCDCA equaled GDCA | relative toxicity in the LDH assay (SCHH [1]): greater than GCDCA

SMILES: CN(CCOc1ccc(CC2SC(=O)NC2=O)cc1)c1ccccn1 (stereo not shown) [rosiglitazone]
Cmax ([2]; Dawson et al. 2012): 1000 nM | ALT elevations≥3× upper limit normal [3]: not different from placebo recipients

SMILES: C[C@H](CCC(=O)NCC(=O)O)[C@H]1CC[C@H]2[C@@H]3[C@H](O)C[C@@H]4C[C@H](O)CC[C@]4(C)[C@H]3CC[C@]12C [GCDCA]
relative toxicity in the ATP assay (SCHH [1]): equaled GDCA | relative toxicity in the LDH assay (SCHH [1]): GDCA was greater than GCDCA

ATP content (FXR; [7]): no significant decreases of ATP content
SMILES: Cc1c(C)c2c(c(C)c1O)CCC(C)(COc1ccc(CC3SC(=O)NC3=O)cc1)O2 (stereo not shown) [troglitazone]
ATP content (SCHH [4]): 0.9 % of control | LDH leakage (SCHH [4]): 863 % of control | LDH secretion (SCHH [4]): 490 % of control | loss of ATP content (SCHH [4]): > 99 % of control | LDH leakage (FXR; [7]): no significant decreases of ATP content or increases of LDH leakage

NTCP effect (NTCP): potent/efficacious NTCP inhibitor
SMILES: Cc1cc2c(cc1CC(=O)c1sccc1S(=O)(=O)Nc1onc(C)c1Cl)OCO2 [Sitaxsentan]
Cmax ([2]; in vivo): 23500 nM | BSEP effect (BSEP): no BSEP effect | effect on hepatotoxicity of the bile acid pool [5]: did not alter the hepatotoxicity of the bile acid pool | BA toxicity potency (SCHH [6]): Decreased BA toxicity potency | clinical toxicity [3]: Toxicity in clinic after 5 months; liver likely not primary site of toxicity; also recorded: No toxicity @ 3 months

SMILES: COC(c1ccccc1)(c1ccccc1)[C@H](Oc1nc(C)cc(C)n1)C(=O)O [Ambrisentan]
Cmax ([2]; in vivo): 3000 nM | BA toxicity potency (SCHH [6]): No change in BA toxicity potency | clinical toxicity [3]: Well tolerated; no toxicity

SMILES: CCc1ccc(CCOc2ccc(CC3SC(=O)NC3=O)cc2)nc1 (stereo not shown) [pioglitazone]
Cmax ([2]; Dawson et al. 2012): 2900 nM | ALT elevations≥3× upper limit normal [3]: not different from placebo recipients
